From US11168073B2, “3,3-difluoroallylamines or salts thereof and pharmaceutical compositions comprising the same” (YUHAN CORPORATION, priority 2018, dated 2021)
Counter-ions that a name gives are not always drawn.

Experiments:
Assay type in all cases: biochemical
[1] = molecular target: T1, recombinant human VAP-1 (Homo sapiens, UniProt Q16853); assay: Activity evaluation on recombinant human VAP-1 (Amplex Red/HRP-coupled hydrogen peroxide assay, benzylamine substrate); conditions: recombinant human VAP-1, benzylamine substrate; read-out: Inhibitory Activity (IC50, nM) human VAP-1
T1 construct: purchased R&D systems
T1 sequence (Q16853 1-763): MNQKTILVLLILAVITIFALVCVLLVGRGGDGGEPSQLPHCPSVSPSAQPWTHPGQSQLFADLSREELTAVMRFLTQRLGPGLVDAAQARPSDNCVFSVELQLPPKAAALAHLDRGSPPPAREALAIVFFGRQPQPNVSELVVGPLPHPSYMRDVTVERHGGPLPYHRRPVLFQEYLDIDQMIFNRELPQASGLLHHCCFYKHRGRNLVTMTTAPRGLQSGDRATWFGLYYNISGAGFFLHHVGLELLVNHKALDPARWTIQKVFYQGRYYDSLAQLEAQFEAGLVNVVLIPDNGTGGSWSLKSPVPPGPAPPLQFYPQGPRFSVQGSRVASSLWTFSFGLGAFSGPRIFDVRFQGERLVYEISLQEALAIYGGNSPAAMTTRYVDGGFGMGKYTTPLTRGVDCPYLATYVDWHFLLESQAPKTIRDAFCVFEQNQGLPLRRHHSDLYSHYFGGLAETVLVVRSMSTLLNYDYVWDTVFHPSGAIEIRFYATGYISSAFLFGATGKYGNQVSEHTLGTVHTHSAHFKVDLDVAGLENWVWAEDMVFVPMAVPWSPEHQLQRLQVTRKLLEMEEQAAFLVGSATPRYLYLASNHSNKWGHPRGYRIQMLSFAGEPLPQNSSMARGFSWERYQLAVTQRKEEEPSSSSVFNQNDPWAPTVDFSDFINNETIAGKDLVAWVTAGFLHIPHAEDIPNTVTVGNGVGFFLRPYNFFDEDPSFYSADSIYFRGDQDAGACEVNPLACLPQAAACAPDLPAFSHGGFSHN
Outline: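 Recombinant human VAP-1 in 50 mM sodium phosphate pH 7.4 preincubated 30 min at 37 °C with compound (8-point 1:3 series, <1% DMSO), then 1 mM benzylamine, 200 uM Amplex Red, 1 U/mL HRP added. H2O2-derived resorufin fluorescence (ex 544/em 590) followed 1–2 h; IC50 from four-parameter fit of rate inhibition.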

[2] = molecular target: T2, recombinant human DAO (diamine oxidase) (Homo sapiens, UniProt P19801); assay: Activity evaluation on recombinant human DAO (Amplex Red/HRP-coupled assay, 1 mM putrescine substrate); conditions: 1 mM putrescine substrate, read-out: Inhibitory Activity (IC50, nM) DAO
T2 construct: purchased R&D systems
T2 sequence (P19801 20-751): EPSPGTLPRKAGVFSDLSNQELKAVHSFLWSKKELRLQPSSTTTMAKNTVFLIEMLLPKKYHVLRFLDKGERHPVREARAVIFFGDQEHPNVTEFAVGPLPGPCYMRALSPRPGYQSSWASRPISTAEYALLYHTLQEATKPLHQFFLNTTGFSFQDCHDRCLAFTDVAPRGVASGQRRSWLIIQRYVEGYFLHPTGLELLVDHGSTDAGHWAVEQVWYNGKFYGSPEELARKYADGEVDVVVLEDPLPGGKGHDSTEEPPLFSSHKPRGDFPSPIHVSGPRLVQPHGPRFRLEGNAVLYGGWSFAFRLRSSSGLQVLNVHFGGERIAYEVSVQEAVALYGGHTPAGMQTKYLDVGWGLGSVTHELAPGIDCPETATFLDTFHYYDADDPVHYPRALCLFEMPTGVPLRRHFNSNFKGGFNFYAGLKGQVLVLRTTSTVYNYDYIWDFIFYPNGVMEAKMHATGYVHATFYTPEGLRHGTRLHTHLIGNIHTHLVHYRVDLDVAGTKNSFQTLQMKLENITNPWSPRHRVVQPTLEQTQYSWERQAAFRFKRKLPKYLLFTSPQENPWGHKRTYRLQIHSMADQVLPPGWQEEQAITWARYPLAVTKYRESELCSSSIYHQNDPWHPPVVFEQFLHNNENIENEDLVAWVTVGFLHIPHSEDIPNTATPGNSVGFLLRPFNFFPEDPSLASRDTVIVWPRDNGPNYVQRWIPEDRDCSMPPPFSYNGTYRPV
Outline: (§1)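 Enzyme activity was measured as fluorescence rate (ex 544, em 590 nm) from resorufin formed by HRP-coupled H2O2 oxidation of 200 uM Amplex Red. Compounds were first incubated 30 min at 37 °C with enzyme at pH 7.4; substrates were 0.5 mM tyramine (MAO-A), 1 mM benzylamine (MAO-B) and 1 mM putrescine (DAO).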

[3] = molecular target: T3, recombinant human MAO-A (monoamine oxidase-A) (Homo sapiens, UniProt P21397); assay: Activity evaluation on recombinant human MAO-A (Amplex Red/HRP-coupled assay, 0.5 mM tyramine substrate); conditions: 0.5 mM tyramine substrate, read-out: Inhibitory Activity (IC50, nM) MAO-A
T3 construct: purchased Sigma-Aldrich
T3 sequence (P21397 1-527): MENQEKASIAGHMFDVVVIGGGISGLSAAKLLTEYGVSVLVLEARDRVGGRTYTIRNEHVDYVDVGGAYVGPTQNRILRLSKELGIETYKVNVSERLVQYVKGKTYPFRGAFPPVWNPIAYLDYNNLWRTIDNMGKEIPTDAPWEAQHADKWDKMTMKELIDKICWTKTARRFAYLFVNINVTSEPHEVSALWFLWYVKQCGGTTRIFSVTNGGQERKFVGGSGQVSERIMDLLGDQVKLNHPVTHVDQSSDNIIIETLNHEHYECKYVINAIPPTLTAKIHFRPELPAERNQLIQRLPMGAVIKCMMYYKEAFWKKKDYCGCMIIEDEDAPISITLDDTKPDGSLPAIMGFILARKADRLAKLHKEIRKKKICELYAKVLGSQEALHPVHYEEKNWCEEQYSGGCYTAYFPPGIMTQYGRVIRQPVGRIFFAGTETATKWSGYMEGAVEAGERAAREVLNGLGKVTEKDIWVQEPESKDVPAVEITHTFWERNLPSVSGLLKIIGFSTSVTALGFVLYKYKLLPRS
Outline: as §1

[4] = molecular target: T4, recombinant human MAO-B (monoamine oxidase-B) (Homo sapiens, UniProt P27338); assay: Activity evaluation on recombinant human MAO-B (Amplex Red/HRP-coupled assay, 1 mM benzylamine substrate); conditions: 1 mM benzylamine substrate, read-out: Inhibitory Activity (IC50, nM) MAO-B
T4 construct: purchased Sigma-Aldrich
T4 sequence (P27338 1-520): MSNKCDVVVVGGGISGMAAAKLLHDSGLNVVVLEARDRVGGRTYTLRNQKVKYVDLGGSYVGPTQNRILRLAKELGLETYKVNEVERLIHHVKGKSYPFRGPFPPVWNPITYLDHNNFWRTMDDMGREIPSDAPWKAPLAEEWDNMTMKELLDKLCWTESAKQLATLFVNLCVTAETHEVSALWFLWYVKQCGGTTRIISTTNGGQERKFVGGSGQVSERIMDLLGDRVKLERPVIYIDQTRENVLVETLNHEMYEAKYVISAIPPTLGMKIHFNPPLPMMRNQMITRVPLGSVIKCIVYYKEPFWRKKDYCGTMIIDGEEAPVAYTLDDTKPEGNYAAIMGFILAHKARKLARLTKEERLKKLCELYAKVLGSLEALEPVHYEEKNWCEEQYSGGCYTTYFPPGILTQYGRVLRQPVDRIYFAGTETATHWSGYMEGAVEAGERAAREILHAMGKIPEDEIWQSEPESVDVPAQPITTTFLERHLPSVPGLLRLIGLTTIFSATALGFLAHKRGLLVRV
Outline: as §1

SMILES | IC50 [1] [nM] | IC50 [2] [nM] | IC50 [3] [nM] | IC50 [4] [nM]
NCC(Cn1ncn(Cc2ccc(-c3cnn(S(=O)(=O)C4CC4)c3)s2)c1=O)=C(F)F [Example 294, 2-[2-(aminomethyl)-3,3-difluoro-allyl]-4-[[5-(1-cyclopropylsulfonylpyrazol-4-yl)-2-thienyl]methyl]-1,2,4-triazol-3-one Trifluoroacetate] | 2.9 | 5380 | > 100000 | > 100000
NCC(Cn1ncn(Cc2ccc(-c3cnn(Cc4ccccc4)c3)s2)c1=O)=C(F)F [Example 297, 2-[2-(aminomethyl)-3,3-difluoro-allyl]-4-[[5-(1-benzylpyrazol-4-yl)-2-thienyl]methyl]-1,2,4-triazol-3-one Trifluoroacetate] | 1.9 | 14800 | > 100000 | > 100000
NCC(Cn1ncn(Cc2sc(-c3ccc(N4CCNCC4)cc3)cc2F)c1=O)=C(F)F [Example 298, 2-[2-(aminomethyl)-3,3-difluoro-allyl]-4-[[3-fluoro-5-(4-piperazin-1-ylphenyl)-2-thienyl]methyl]-1,2,4-triazol-3-one ditrifluoroacetate] | 12 | 0.2 | > 100000 | > 100000
CCn1cc(-c2cc(F)c(Cn3cnn(CC(CN)=C(F)F)c3=O)s2)ccc1=O [Example 299, 5-[5-[[1-[2-(aminomethyl)-3,3-difluoro-allyl]-5-oxo-1,2,4-triazol-4-yl]methyl]-4-fluoro-2-thienyl]-1-ethyl-pyridin-2-one Trifluoroacetate] | 1.4 | 9680 | > 100000 | > 100000
NCC(Cn1ncn(Cc2sc(-c3ccc4c(c3)OCO4)cc2F)c1=O)=C(F)F [Example 300, 2-[2-(aminomethyl)-3,3-difluoro-allyl]-4-[[5-(1,3-benzodioxol-5-yl)-3-fluoro-2-thienyl]methyl]-1,2,4-triazol-3-one Trifluoroacetate] | 1.7 | 25300 | > 100000 | 11100

Stronger by IC50 [1], values ahead:

IC50 [1] [nM] | IC50 [2] [nM] | IC50 [3] [nM] | IC50 [4] [nM] | SMILES
1.1 | 19500 | > 100000 | > 100000 | CCn1cc(-c2cc(F)c(Cn3cnn(CC(CN)=C(F)F)c3=O)s2)cn1 [Example 302, 2-[2-(aminomethyl)-3,3-difluoro-allyl]-4-[[5-(1-ethylpyrazol-4-yl)-3-fluoro-2-thienyl]methyl]-1,2,4-triazol-3-one Trifluoroacetate]
1 | > 100000 | > 100000 | > 100000 | Cn1cc(-c2ccc(Cn3cnn(CC(CN)=C(F)F)c3=O)s2)cn1 [Example 296, 2-[2-(aminomethyl)-3,3-difluoro-allyl]-4-[[5-(1-methylpyrazol-4-yl)-2-thienyl]methyl]-1,2,4-triazol-3-one Trifluoroacetate]
0.8 | > 100000 | > 100000 | > 100000 | CN(C)c1ccc(-c2cc(F)c(Cn3cnn(CC(CN)=C(F)F)c3=O)s2)cn1 [Example 303, 2-(2-(aminomethyl)-3,3-difluoroallyl)-4-((5-(6-(dimethylamino)pyridin-3-yl)-3-fluorothiophen-2-yl)methyl)-2,4-dihydro-3H-1,2,4-triazol-3-one trifluoroacetate]
0.7 | 12600 | > 100000 | > 100000 | Cc1cc(-c2cc(F)c(Cn3cnn(CC(CN)=C(F)F)c3=O)s2)cc2c1NC(=O)CC2 [Example 304, 6-(5-((1-(2-(aminomethyl)-3,3-difluoroallyl)-5-oxo-1,5-dihydro-4H-1,2,4-triazol-4-yl)methyl)-4-fluorothiophen-2-yl)-8-methyl-3,4-dihydroquinolin-2(1H)-one Trifluoroacetate]
0.5 | 2680 | > 100000 | > 100000 | CN1C(=O)CCc2cc(-c3cc(F)c(Cn4cnn(CC(CN)=C(F)F)c4=O)s3)ccc21 [Example 301, 6-[5-[[1-[2-(aminomethyl)-3,3-difluoro-allyl]-5-oxo-1,2,4-triazol-4-yl]methyl]-4-fluoro-2-thienyl]-1-methyl-3,4-dihydroquinolin-2-one trifluoroacetate]
0.3 | > 100000 | > 100000 | > 100000 | NCC(Cn1ncn(Cc2ccc(-c3cnn(CC4CC4)c3)s2)c1=O)=C(F)F [Example 295, 2-[2-(aminomethyl)-3,3-difluoro-allyl]-4-[[5-[1-(cyclopropylmethyl)pyrazol-4-yl]-2-thienyl]methyl]-1,2,4-triazol-3-one Trifluoroacetate]
